System: major depressive disorders
Experiment: Effect of osanetant on major depressive disorders in patients
Assay type: in vivo, human
Settings: patients 18 to 65 years of age with major depressive disorders; osanetant 200 mg/day for about 6 weeks
Description: The effect of osanetant on major depressive disorders has been investigated in patients of between 18 and 65 years of age. The patients were given osanetant (200 mg/day) for a period of about 6 weeks.

CC(=O)N(C)C1(c2ccccc2)CCN(CCC[C@]2(c3ccc(Cl)c(Cl)c3)CCCN(C(=O)c3ccccc3)C2)CC1 [osanetant, (R)-(+)-N-[(3-(1-benzoyl-3-(3,4-dichlorophenyl)piperidin-3-yl)propyl)-4-phenylpiperidin-4-yl]-N-methyl acetamide]
scores on the Hamilton scale (improvement in the depressive syndrome): significant reduction

From patent US6420388B1, “Osanetant in the treatment of depression and depressive disorders” (Sanofi-Synthelabo, priority 1999, dated 2002)
